Where two headings read alike, the source gives them in different places.
How the values were obtained:
MDA-MB-231 (breast) = experiment: Cell growth inhibition assay (SRB), MDA-MB-231; type: cell-based, human; conditions: Homo sapiens, SRB method, 96 hours incubation
Experimental: (§1) OVCAR-3, MCF-7, PC3, HepG2, A549, HT-29 and MKN-45 were grown in RPMI1640 medium (Invitrogen, Carlsbad, Calif.) supplemented with 10% fetal bovine serum (‘FBS’), 1 mM sodium pyruvate, 10 mM HEPES and 100 U/ml penicillin and […] streptomycin (‘P/S’). MDA-MB-231, HCT116, UMRC2, Caki-1, PANC-1 and HEK293 cells were maintained in Dulbecco's modified Eagle's medium (‘DMEM’, Invitrogen) supplemented with 10% FBS, P/S, 10 mM HEPES and 2 mM L-glutamine. HUVEC was maintained in M199 supplemented with basic fibroblast growth factor (‘bFGF’) […] and FBS 20%. All cells were incubated at 37° C. under humidified 5% CO2.
(§2) The growth inhibition of the substituted quinoxalin-piperazine compounds against a variety of human tumor cells was evaluated. The relative importance of particular substituent groups on the compounds was also studied. The substituted piperazine derivative compounds, prepared as described above, were tested, along with DMSO as a control.
(§3) The growth inhibition assay of various compounds against human tumor cell lines was performed using the Sulforhodamine B (‘SRB’) method (Skehan et al., J. National Cancer Institute, 1990, 82, 1107-1112). […] Triplicate wells were used for each treatment. The cells were incubated with the various compounds for 96 hours at 37° C. in a humidified 5% CO2 atmosphere. After 96-hour incubation, cells were fixed with 10% trichloroacetic acid (‘TCA’), incubated for 1 hour at 4° C., and washed 3 times with tap water. Subsequently cells were stained with 0.4% sulforhodamine B in 1% acetic acid for 30 minutes, washed 4 times with 1% acetic acid, and air-dried again. After 5 minutes agitation in 10 mM Tris solution, the absorbance of each well was measured at 530 nm using Benchmark Plus Microplate reader (Bio-Rad Laboratories, Hercules, Calif.).
(§4) To translate the OD530 values into the number of live cells in each well, the OD530 values were compared to those on standard OD530-versus-cell number curves generated for each cell line. The percent survival was calculated using the formula: % Survival=live cell number[test]/live cell number[control]×100
(§5) The IC50 values were calculated by non-linear regression analysis.

UMRC2 (kidney) = experiment: Cell growth inhibition assay (SRB), UMRC2; type: cell-based, human; conditions: Homo sapiens, SRB method, 96 hours incubation
Experimental: as §1, §2, §3, §4, §5

PANC-1 (pancreas) = experiment: Cell growth inhibition assay (SRB), PANC-1; type: cell-based, human; conditions: Homo sapiens, SRB method, 96 hours incubation
Experimental: as §1, §2, §3, §4, §5

HT-29 (colon) = experiment: Cell growth inhibition assay (SRB), HT-29; type: cell-based; conditions: Homo sapiens, SRB method, 96 hours incubation
Experimental: as §1, §2, §3, §4, §5

A549 (lung) = experiment: Cell growth inhibition assay (SRB), A549; type: cell-based; conditions: Homo sapiens, SRB method, 96 hours incubation
Experimental: as §1, §2, §3, §4, §5

[1] = system: HEK293 (human embryonic kidney); experiment: Cell growth inhibition assay (SRB), HEK293; type: cell-based; conditions: SRB method, 96 hours incubation
Experimental: as §1, §2, §3, §4, §5

[2] = system: Huvec (human umbilical vein endothelial cells); experiment: Cell growth inhibition assay (SRB), Huvec; type: cell-based; conditions: SRB method, 96 hours incubation
Experimental: as §1, §2, §3, §4, §5

SK-OV-3 (ovary) = experiment: Cell growth inhibition assay (SRB), SK-OV-3; type: cell-based; conditions: Homo sapiens, SRB method, 96 hours incubation
Experimental: as §1, §2, §3, §4, §5

MKN-45 (stomach) = experiment: Cell growth inhibition assay (SRB), MKN-45; type: cell-based; conditions: Homo sapiens; SRB method, 96 hours incubation, MKN-45 (stomach); read-out: IC50, MKN-45
Experimental: as §1, §2, §3, §4, §5

HepG2 (liver) = experiment: Cell growth inhibition assay (SRB), HepG2; type: cell-based; conditions: Homo sapiens; SRB method, 96 hours incubation, HepG2 (liver); read-out: IC50, HepG2
Experimental: as §1, §2, §3, §4, §5

HCT116 (colon) = experiment: Cell growth inhibition assay (SRB), HCT116; type: cell-based; conditions: Homo sapiens, HCT-116; SRB method, 96 hours incubation, HCT116 (colon); read-out: IC50, HCT116
Experimental: as §1, §2, §3, §4, §5

PC3 (prostate) = experiment: Cell growth inhibition assay (SRB), PC3; type: cell-based; conditions: Homo sapiens; SRB method, 96 hours incubation, PC3 (prostate); read-out: IC50, PC3
Experimental: as §1, §2, §3, §4, §5

OVCAR-3 (ovary) = experiment: Cell growth inhibition assay (SRB), OVCAR-3; type: cell-based; conditions: Homo sapiens; SRB method, 96 hours incubation, OVCAR-3 (ovary); read-out: IC50, OVCAR-3
Experimental: as §1, §2, §3, §4, §5

[3] = system: MCF-7 (breast, hormone-dependent); experiment: Cell growth inhibition assay (SRB), MCF-7; type: cell-based; conditions: Homo sapiens, MCF7; SRB method, 96 hours incubation, MCF-7 (breast, hormone-dependent); read-out: IC50, MCF-7
Experimental: as §1, §2, §3, §4, §5

Caki-1 (kidney) = experiment: Cell growth inhibition assay (SRB), Caki-1; type: cell-based; conditions: Homo sapiens; SRB method, 96 hours incubation, Caki-1 (kidney); read-out: IC50, Caki-1
Experimental: as §1, §2, §3, §4, §5

[4] = MDA-MB-231 (breast), read-out: IC50, MDA-MB-231
[5] = UMRC2 (kidney), read-out: IC50, UMRC2
[6] = PANC-1 (pancreas), read-out: IC50, PANC-1
[7] = HT-29 (colon), read-out: IC50, HT-29
[8] = A549 (lung), read-out: IC50, A549
[9] = HEK293 (human embryonic kidney), read-out: IC50, HEK293
[10] = SK-OV-3 (ovary), read-out: IC50, SK-OV-3

| IC50 (MDA-MB-231 (breast); [4]) [µM] | IC50 (PANC-1 (pancreas); [6]) [µM] | IC50 (MKN-45 (stomach)) [nM] | IC50 (HepG2 (liver)) [nM] | IC50 (HT-29 (colon); [7]) [µM] | IC50 (HCT116 (colon)) [nM] | IC50 (PC3 (prostate)) [nM] | IC50 (OVCAR-3 (ovary)) [nM] | IC50 [3] [nM] | IC50 (A549 (lung); [8]) [µM] | IC50 (SK-OV-3 (ovary); [10]) [µM] | SMILES | IC50 (UMRC2 (kidney); [5]) [µM] | IC50 (Caki-1 (kidney)) [nM] | IC50 [1, 9] [µM] | IC50 ([2]; read-out: IC50, Huvec) [µM] | also measured |
| --- | --- | --- | --- | --- | --- | --- | --- | --- | --- | --- | --- | --- | --- | --- | --- | --- |
| 0.13 | 0.17 | 430 | 410 | 0.46 | 450 | 620 | 310 | 450 | 0.59 | 0.5 | COc1nc2cc(Cl)ccc2nc1NC(=O)N1CCN(c2cc(C)cc(C)c2)CC1 [Compound 115, 1-[(6-Chloro-3-methoxyquinoxalin-2-yl)aminocarbonyl]-4-(3,5-dimethylphenyl)piperazine] | 0.11 | 310 | 0.5 | 0.52 |  |
| 0.045 | 0.28 | 180 | 190 | 0.24 | 200 | 250 | 140 | 210 | 0.21 | 0.1 | COc1nc2cc(C)ccc2nc1NC(=O)N1CCN(c2cc(C)cc(C)c2)CC1 [Compound 136, 1-[(3-Methoxy-6-methylquinoxalin-2-yl)aminocarbonyl]-4-(3,5-dimethylphenyl)piperazine] | 0.057 | 130 | 0.24 | 0.15 |  |

More lines, now with the values behind:

| SMILES | IC50 (MDA-MB-231 (breast); [4]) [µM] | IC50 (PANC-1 (pancreas); [6]) [µM] | IC50 (MKN-45 (stomach)) [nM] | IC50 (HepG2 (liver)) [nM] | IC50 (HT-29 (colon); [7]) [µM] | IC50 (HCT116 (colon)) [nM] | IC50 (PC3 (prostate)) [nM] | IC50 (OVCAR-3 (ovary)) [nM] | IC50 [3] [nM] | IC50 (A549 (lung); [8]) [µM] | IC50 (SK-OV-3 (ovary); [10]) [µM] | IC50 (UMRC2 (kidney); [5]) [µM] | IC50 (Caki-1 (kidney)) [nM] | IC50 [1, 9] [µM] | IC50 ([2]; read-out: IC50, Huvec) [µM] | also measured |
| --- | --- | --- | --- | --- | --- | --- | --- | --- | --- | --- | --- | --- | --- | --- | --- | --- |
| COc1cccc(N2CCN(C(=O)Nc3nc4cc(C)ccc4nc3OC)CC2)c1 [Compound 45, 1-[(2-Methoxy-6-methylquinoxalin-3-yl)aminocarbonyl]-4-(3-methoxyphenyl)piperazine] |  |  |  |  |  |  |  |  |  |  |  |  |  |  |  | IC50 (MDA-MB-231 (breast); MDA-MB-231, read-out: Inhibition of cell growth (IC50, μM) by quinoxaline-piperazine compounds against human cancer cell lines: MDA-MB-231): 0.27 µM; IC50 (UMRC2 (kidney); UMRC2, read-out: Inhibition of cell growth (IC50, μM) by quinoxaline-piperazine compounds against human cancer cell lines: UMRC2): 0.45 µM; IC50 (PANC-1 (pancreas); PANC-1, read-out: Inhibition of cell growth (IC50, μM) by quinoxaline-piperazine compounds against human cancer cell lines: PANC-1): 1.31 µM; IC50 (HT-29 (colon); HT-29, HT29, read-out: Inhibition of cell growth (IC50, μM) by quinoxaline-piperazine compounds against human cancer cell lines: HT29): 0.05 µM; IC50 (A549 (lung); A549, read-out: Inhibition of cell growth (IC50, μM) by quinoxaline-piperazine compounds against human cancer cell lines: A549): 0.25 µM; IC50 ([1]; Homo sapiens, Hek293, read-out: Inhibition of cell growth (IC50, μM) by quinoxaline-piperazine compounds against human cancer cell lines: Hek293): 0.5 µM; IC50 ([2]; read-out: Inhibition of cell growth (IC50, μM) by quinoxaline-piperazine compounds against human cancer cell lines: Huvec): 0.5 µM; IC50 (SK-OV-3 (ovary); SK-OV-3, read-out: Inhibition of cell growth (IC50, μM) by quinoxaline-piperazine compounds against human cancer cell lines: SK-OV-3): 1 µM |
| COc1nc2cc(F)ccc2nc1NC(=O)N1CCN(c2cc(C)cc(C)c2)CC1 [Compound 94, 1-[(6-Fluoro-3-methoxyquinoxalin-2-yl)aminocarbonyl]-4-(3,5-dimethylphenyl)piperazine] | 0.41 | 0.56 | 250 | 480 | 0.89 | 400 | 700 | 290 | 360 | 0.42 | 0.5 | 0.32 | 330 | 0.57 | 0.16 |  |
| COc1ccc2nc(NC(=O)N3CCN(c4cc(C)cc(C)c4)CC3)c(OC)nc2c1 [Compound 157, 1-[(3,6-Dimethoxyquinoxalin-2-yl)aminocarbonyl]-4-(3,5-dimethylphenyl)piperazine] | 0.41 | 0.47 | 270 | 560 | 0.78 | 380 | 580 | 290 | 210 | 2.5 | 0.5 | 0.27 | 300 | 0.53 | 0.15 |  |

Source: US8598173B2, “1-[(6,7-substituted alkoxyquinoxalinyl)aminocarbonyl]-4-(hetero)arylpiperazine derivatives for treating tumors” (Korea Research Institute of Chemical Technology, priority 2004, dated 2013)
